The target in assay [1] is T1, Nitric oxide synthase, inducible (Mus musculus, UniProt P29477).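 Also: inhibition of iNOS enzyme activity measured with L-arginine as substrate; in other assays of this panel Not Active means under 50% inhibition at 10 µM.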
T1 sequence (P29477 whole entry): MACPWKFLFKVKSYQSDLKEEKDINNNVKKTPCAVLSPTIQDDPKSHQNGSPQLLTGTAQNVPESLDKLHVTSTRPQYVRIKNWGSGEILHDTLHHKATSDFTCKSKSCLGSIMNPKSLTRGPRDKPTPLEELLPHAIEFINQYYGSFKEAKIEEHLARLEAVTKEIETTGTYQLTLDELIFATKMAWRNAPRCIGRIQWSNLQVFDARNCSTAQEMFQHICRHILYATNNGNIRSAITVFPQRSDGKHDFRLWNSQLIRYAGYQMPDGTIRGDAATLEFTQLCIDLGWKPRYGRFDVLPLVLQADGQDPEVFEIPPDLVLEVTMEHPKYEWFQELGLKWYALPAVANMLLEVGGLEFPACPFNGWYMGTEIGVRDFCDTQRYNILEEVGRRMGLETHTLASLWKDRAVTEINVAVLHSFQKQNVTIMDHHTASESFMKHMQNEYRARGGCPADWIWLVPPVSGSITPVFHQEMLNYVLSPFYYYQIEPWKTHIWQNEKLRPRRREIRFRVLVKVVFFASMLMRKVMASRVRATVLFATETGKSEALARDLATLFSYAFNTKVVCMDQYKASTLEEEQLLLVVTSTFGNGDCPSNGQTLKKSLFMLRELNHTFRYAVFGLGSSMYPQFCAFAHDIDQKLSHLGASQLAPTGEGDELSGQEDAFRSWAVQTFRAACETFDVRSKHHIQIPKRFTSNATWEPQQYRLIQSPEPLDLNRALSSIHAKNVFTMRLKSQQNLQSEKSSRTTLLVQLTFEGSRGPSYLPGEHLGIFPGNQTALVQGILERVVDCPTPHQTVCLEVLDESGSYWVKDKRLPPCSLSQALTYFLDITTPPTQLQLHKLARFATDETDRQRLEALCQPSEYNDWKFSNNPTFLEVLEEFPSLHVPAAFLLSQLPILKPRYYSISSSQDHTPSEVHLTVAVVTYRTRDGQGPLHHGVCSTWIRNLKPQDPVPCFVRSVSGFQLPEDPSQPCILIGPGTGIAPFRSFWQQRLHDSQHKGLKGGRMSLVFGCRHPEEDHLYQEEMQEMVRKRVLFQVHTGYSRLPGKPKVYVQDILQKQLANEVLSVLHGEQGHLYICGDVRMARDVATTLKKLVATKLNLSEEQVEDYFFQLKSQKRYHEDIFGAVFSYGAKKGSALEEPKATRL
Also noted: species or system Escherichia coli.

Assay [2] in a line: DRUGMATRIX: Calcium Channel Type L, Phenylalkylamine radioligand binding (ligand: [3H] (-)-Desmethoxyverapamil (D-888)). In kind it is cell membranes, Rattus norvegicus, Wistar, Brain, Membrane. The settings on record: Not Active = under 50% inhibition at 10 µM.
Assay [3] is described as follows: DRUGMATRIX: GABAA, Muscimol, Central radioligand binding (ligand: [3H] Muscimol). The settings on record: Not Active = under 50% inhibition at 10 µM. In kind it is cell membranes, Rattus norvegicus, Wistar, Brain, Membrane.
The target of assay [4] is Kappa-type opioid receptor (Homo sapiens, UniProt P41145). Nature of the assay: DRUGMATRIX: Opiate kappa (OP2, KOP) radioligand binding (ligand: [3H] Diprenorphine). The assay is classed as cell membranes, HEK293, Membrane. The settings on record: Not Active = under 50% inhibition at 10 µM.
Kappa-type opioid receptor, sequence (P41145 whole entry): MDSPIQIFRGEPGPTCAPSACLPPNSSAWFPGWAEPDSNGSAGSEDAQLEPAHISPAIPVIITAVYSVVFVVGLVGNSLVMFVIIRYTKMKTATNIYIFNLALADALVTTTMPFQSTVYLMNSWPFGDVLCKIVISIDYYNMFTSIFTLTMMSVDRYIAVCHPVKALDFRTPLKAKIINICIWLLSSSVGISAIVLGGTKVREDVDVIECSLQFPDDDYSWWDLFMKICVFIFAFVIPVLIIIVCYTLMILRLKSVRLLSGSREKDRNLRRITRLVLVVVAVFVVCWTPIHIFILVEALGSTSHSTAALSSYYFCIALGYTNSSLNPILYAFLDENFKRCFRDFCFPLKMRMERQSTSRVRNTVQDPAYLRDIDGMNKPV
The target of assay [5] is T2, Receptor-type tyrosine-protein phosphatase C (Homo sapiens, UniProt P08575).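 Also: inhibition of CD45 enzyme activity measured using DiFMUP as substrate; in other assays of this panel Not Active means under 50% inhibition at 10 µM.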
T2 sequence (P08575 whole entry): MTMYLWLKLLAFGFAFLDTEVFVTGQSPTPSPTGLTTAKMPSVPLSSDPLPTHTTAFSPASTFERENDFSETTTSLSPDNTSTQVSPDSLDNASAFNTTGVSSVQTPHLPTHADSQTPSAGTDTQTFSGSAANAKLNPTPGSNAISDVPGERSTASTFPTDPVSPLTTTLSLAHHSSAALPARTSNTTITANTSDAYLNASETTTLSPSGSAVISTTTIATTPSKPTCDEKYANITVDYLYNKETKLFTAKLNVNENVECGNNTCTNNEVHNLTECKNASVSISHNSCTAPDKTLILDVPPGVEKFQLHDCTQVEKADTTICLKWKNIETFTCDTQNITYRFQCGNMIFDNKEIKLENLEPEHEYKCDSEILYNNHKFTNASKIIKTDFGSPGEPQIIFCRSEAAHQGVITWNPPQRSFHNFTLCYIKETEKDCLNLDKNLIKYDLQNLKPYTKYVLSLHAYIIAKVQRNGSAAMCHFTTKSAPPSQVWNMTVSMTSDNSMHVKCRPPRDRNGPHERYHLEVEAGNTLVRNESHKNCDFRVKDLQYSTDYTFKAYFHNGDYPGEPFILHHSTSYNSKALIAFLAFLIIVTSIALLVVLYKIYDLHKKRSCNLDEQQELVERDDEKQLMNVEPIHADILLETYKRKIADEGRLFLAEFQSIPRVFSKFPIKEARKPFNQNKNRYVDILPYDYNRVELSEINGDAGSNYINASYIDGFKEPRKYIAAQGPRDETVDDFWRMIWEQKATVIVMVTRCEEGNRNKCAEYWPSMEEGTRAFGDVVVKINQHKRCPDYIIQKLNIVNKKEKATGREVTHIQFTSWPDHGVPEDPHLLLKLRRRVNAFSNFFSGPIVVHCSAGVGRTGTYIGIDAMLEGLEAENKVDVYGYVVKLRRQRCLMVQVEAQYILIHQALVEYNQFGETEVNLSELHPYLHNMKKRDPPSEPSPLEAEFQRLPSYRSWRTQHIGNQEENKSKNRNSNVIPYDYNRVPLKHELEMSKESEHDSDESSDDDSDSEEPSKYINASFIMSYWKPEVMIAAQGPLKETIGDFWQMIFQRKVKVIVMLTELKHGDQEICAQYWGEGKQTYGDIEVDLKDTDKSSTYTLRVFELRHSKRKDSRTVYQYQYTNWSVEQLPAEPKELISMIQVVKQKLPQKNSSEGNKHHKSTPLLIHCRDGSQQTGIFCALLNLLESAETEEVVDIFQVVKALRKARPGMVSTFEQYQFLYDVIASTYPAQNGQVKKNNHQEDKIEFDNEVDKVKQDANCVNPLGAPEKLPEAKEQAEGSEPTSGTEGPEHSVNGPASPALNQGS
Also noted: species or system Escherichia coli.

Assay [6] can be described thus: DRUGMATRIX: Phorbol Ester radioligand binding (ligand: [3H] PDBu). The assay is classed as cell membranes, Mus musculus, ICR, Brain, Membrane. The settings on record: Not Active = under 50% inhibition at 10 µM.
A short description of assay [7]: DRUGMATRIX: Sodium/nucleoside co-transporter radioligand binding (ligand: nitrobenzylthioinosine). In kind it is cell membranes, Cavia porcellus, Dunkin-Hartley, Cerebral cortex, Membrane. The conditions noted are these: Not Active = under 50% inhibition at 10 µM.
Assay [8] concerns the target Mitogen-activated protein kinase 3 (Homo sapiens, UniProt P27361). Description: DRUGMATRIX: Protein Serine/Threonine Kinase, ERK1 enzyme inhibition (substrate: Myelin Basic Protein). The settings on record: Not Active = under 50% inhibition at 10 µM. More on the design: species or system Escherichia coli.

Mitogen-activated protein kinase 3, sequence (P27361 whole entry): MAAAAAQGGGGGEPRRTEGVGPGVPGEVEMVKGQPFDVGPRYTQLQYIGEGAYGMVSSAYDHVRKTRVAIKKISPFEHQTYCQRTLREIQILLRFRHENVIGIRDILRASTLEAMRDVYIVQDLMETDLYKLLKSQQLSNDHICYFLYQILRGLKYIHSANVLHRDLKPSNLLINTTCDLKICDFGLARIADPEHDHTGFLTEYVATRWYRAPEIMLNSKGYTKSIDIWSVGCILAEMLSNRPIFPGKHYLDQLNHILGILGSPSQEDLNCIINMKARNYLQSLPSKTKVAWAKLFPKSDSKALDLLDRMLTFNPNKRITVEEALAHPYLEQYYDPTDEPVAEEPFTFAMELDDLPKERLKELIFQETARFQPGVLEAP

The term IC50 denotes the midpoint of a concentration-inhibition curve. The Ki is a measure of affinity in units of concentration, obtained from inhibition or displacement. Take `CN(C)c1ccc(C(=C2C=CC(=[N+](C)C)C=C2)c2ccc(N(C)C)cc2)cc1.[Cl-]` [GENTIAN VIOLET]: the IC50 entry was “Not Active” in assay [1]; 3440 nM in assay [2] (read-out: IC50); “Not Active” in assay [3]; 1540 nM in assay [4] (read-out: IC50); “Not Active” in assay [5]; “Not Active” in assay [6]. The half-maximal inhibitory concentration (IC50) entry in assay [7] and in assay [8] was “Not Active” each time. For the same molecule, the Ki is 3350 nM in assay [2] (read-out: Ki); “Not Active” in assay [3]; 616 nM in assay [4] (read-out: Ki); “Not Active” in assay [6]; “Not Active” in assay [7].

`Cc1ccc(S(=O)(=O)NC(=O)NN2CC3CCCC3C2)cc1` (stereo not drawn) [GLICLAZIDE]: the concentration for half-maximal inhibition (IC50) entry in assay [1], in assay [2], in assay [3], in assay [4] (hek293), in assay [5] and in assay [6] was “Not Active” in each case. Further, the 50% inhibitory concentration (IC50) result in assay [7] and in assay [8] was “Not Active” in each case. In addition, the Ki result in assay [2], in assay [3], in assay [6] and in assay [7] was “Not Active” each time.

As to `NC(=O)NO` [HYDROXYUREA], the half-inhibitory concentration (IC50) result in assay [1], in assay [2], in assay [3], in assay [4] (hek293), in assay [5] and in assay [6] was “Not Active” in each case. Further, the IC50 result in assay [7] and in assay [8] was “Not Active” throughout. The inhibitory constant (Ki) result in assay [2], in assay [3], in assay [6] and in assay [7] was “Not Active” throughout.

In the case of `CC(C)Cc1ccc(C(C)C(=O)O)cc1` (stereo not drawn) [IBUPROFEN], the IC50 result in assay [1], in assay [2], in assay [3], in assay [4] (hek293), in assay [5] and in assay [6] was “Not Active” throughout. Further, the concentration for half-maximal inhibition (IC50) entry in assay [7] and in assay [8] was “Not Active” each time. The Ki result in assay [2], in assay [3], in assay [6] and in assay [7] was “Not Active” throughout.

For the molecule `COc1ccc2c(c1)c(CC(=O)O)c(C)n2C(=O)c1ccc(Cl)cc1` [INDOMETHACIN], the IC50 entry in assay [1], in assay [2], in assay [3], in assay [4] (hek293), in assay [5] and in assay [6] was “Not Active” throughout. The IC50 entry in assay [7] and in assay [8] was “Not Active” throughout. Further, the Ki entry in assay [2], in assay [3], in assay [6] and in assay [7] was “Not Active” each time.

For `CCc1c2c(nc3ccc(OC(=O)N4CCC(N5CCCCC5)CC4)cc13)-c1cc3c(c(=O)n1C2)COC(=O)[C@]3(O)CC` [IRINOTECAN], the IC50 entry in assay [1], in assay [2], in assay [3], in assay [4] (hek293), in assay [5] and in assay [6] was “Not Active” throughout. Moreover, the IC50 entry in assay [7] and in assay [8] was “Not Active” in each case. The Ki entry in assay [2], in assay [3], in assay [6] and in assay [7] was “Not Active” throughout.

Consider `CC(C(=O)O)c1cccc(C(=O)c2ccccc2)c1` (stereo not drawn) [KETOPROFEN], for which the half-inhibitory concentration (IC50) entry in assay [1], in assay [2], in assay [3], in assay [4] (hek293), in assay [5] and in assay [6] was “Not Active” in each case. Further, the IC50 result in assay [7] and in assay [8] was “Not Active” throughout. The Ki result in assay [2], in assay [3], in assay [6] and in assay [7] was “Not Active” throughout.

`Nc1ccn([C@@H]2CS[C@H](CO)O2)c(=O)n1` [LAMIVUDINE]: the 50% inhibitory concentration (IC50) result in assay [1], in assay [2], in assay [3], in assay [4] (hek293), in assay [5] and in assay [6] was “Not Active” in each case. Further, the IC50 result in assay [7] and in assay [8] was “Not Active” in each case. Also, the inhibitory constant (Ki) entry in assay [2], in assay [3], in assay [6] and in assay [7] was “Not Active” each time.

Take `O=S(=O)([O-])CCS.[Na+]` [MESNA]: the IC50 entry in assay [1], in assay [2], in assay [3], in assay [4] (hek293), in assay [5] and in assay [6] was “Not Active” each time. Besides, the IC50 entry in assay [7] and in assay [8] was “Not Active” throughout. The inhibitory constant (Ki) result in assay [2], in assay [3], in assay [6] and in assay [7] was “Not Active” each time.

For `C#C[C@]1(O)CC[C@H]2[C@@H]3CCc4cc(OC)ccc4[C@H]3CC[C@@]21C` [MESTRANOL], the IC50 entry in assay [1], in assay [2], in assay [3], in assay [4] (hek293), in assay [5] and in assay [6] was “Not Active” each time. Further, the concentration for half-maximal inhibition (IC50) result in assay [7] and in assay [8] was “Not Active” throughout. For the same molecule, the Ki result in assay [2], in assay [3], in assay [6] and in assay [7] was “Not Active” each time.

In the case of `CC(=O)Nc1cccc(O)c1` [METACETAMOL], the 50% inhibitory concentration (IC50) entry in assay [1], in assay [2], in assay [3], in assay [4] (hek293), in assay [5] and in assay [6] was “Not Active” each time. Besides, the concentration for half-maximal inhibition (IC50) result in assay [7] and in assay [8] was “Not Active” in each case. Moreover, the Ki entry in assay [2], in assay [3], in assay [6] and in assay [7] was “Not Active” each time.

The record behind these values is ChEMBL document CHEMBL1909046, “DrugMatrix in vitro pharmacology data”.
